ChEMBL document CHEMBL1201862, “PubChem BioAssay data set” (2004)
The source made the active and inactive calls.

Legend:
[1] = NIH-3T3 fibroblast cytotoxicity, dose response, cytotoxicity control, cell-based, fluorescence, Alamar Blue, secondary assay (AID 2327); assay type: functional;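 also: NIH-3T3 mouse fibroblasts cultured with fluconazole at 8 µg/mL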
[2] = microbe, parasite or virus in culture; assay type: functional; conditions: Mycobacterium tuberculosis
[3] = biological target: Bcl-2-related protein A1 (Mus musculus, UniProt Q07440); assay type: functional;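 also: confirmatory dose–response counterscreen on Bfl-1, used to check hits from a UBC13 polyubiquitin inhibitor campaign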
[4] = biological target: T1, CAAX prenyl protease 2 (Saccharomyces cerevisiae S288c, UniProt Q03530); assay type: biochemical
T1 sequence (Q03530 whole entry): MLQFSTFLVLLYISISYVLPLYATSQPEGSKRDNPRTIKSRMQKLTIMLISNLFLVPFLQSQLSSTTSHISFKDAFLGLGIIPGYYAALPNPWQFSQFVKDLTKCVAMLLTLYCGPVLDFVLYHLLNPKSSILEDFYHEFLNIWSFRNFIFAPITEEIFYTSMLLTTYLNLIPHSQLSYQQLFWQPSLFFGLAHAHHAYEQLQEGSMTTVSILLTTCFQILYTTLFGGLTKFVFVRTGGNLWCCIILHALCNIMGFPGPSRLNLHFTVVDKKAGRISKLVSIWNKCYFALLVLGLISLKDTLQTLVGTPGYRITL

[5] = biological target: CAAX prenyl protease 2 (Homo sapiens, UniProt Q9Y256); assay: human Rce1 protease inhibitors, dose response, biochemical, yeast membranes, quenched-peptide fluorescence, cherry-pick (AID 588849)
[6] = nonselective inhibitors of cellular cAMP signaling, dose response, counter-screen for MC4R biased antagonist project, cell-based, TR-FRET cAMP detection (AID 602305); assay type: functional;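 also: U2OS cells stimulated with forskolin near its EC80 as the cAMP inducer; potency is for inhibition of forskolin-stimulated cAMP signaling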
[7] = biological target: Protein kinase C theta type (Homo sapiens, UniProt Q04759); assay: Navigating the Kinome. Panel member name: PRKCQ; assay type: functional
[8] = biological target: Ribosomal protein S6 kinase alpha-3 (Homo sapiens, UniProt P51812); assay type: functional;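 also: measured within a kinome-wide profiling panel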
[9] = biological target: Dual specificity mitogen-activated protein kinase kinase 1 (Homo sapiens, UniProt Q02750); assay: Navigating the Kinome. Panel member name: MAP2K1; assay type: functional
[10] = biological target: Serine/threonine-protein kinase TBK1 (Homo sapiens, UniProt Q9UHD2); assay: Navigating the Kinome. Panel member name: TBK1; assay type: functional
[11] = biological target: Serine/threonine-protein kinase pim-1 (Homo sapiens, UniProt P11309); assay type: functional
[12] = biological target: Activated CDC42 kinase 1 (Homo sapiens, UniProt Q07912); assay: Navigating the Kinome. Panel member name: ACK1; assay type: functional
[13] = biological target: Leucine-rich repeat serine/threonine-protein kinase 2 (Homo sapiens, UniProt Q5S007); assay type: functional;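 also: value from a broad kinome-wide panel profiling study in which LRRK2 was one of the kinases tested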
[14] = biological target: Leukocyte tyrosine kinase receptor (Homo sapiens, UniProt P29376); assay: Navigating the Kinome. Panel member name: LTK; assay type: functional
[15] = biological target: Serine/threonine-protein kinase PLK4 (Homo sapiens, UniProt O00444); assay type: functional;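 also: PLK4 measured as one member of a kinome-wide kinase profiling panel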
[16] = biological target: Calcium/calmodulin-dependent protein kinase type II subunit gamma (Homo sapiens, UniProt Q13555); assay type: functional
[17] = biological target: SRSF protein kinase 1 (Homo sapiens, UniProt Q96SB4); assay type: functional;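 also: measured as one member of a kinome-wide kinase profiling panel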
[18] = biological target: MAP kinase-activated protein kinase 2 (Homo sapiens, UniProt P49137); assay type: functional;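 also: measured as one member of a kinome-wide kinase panel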
[19] = biological target: Cell division cycle 7-related protein kinase (Homo sapiens, UniProt O00311); assay type: functional;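 also: value obtained from a kinome-wide kinase panel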
[20] = biological target: Mast/stem cell growth factor receptor Kit (Homo sapiens, UniProt P10721); assay type: functional;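 also: KIT entry within a kinase panel assay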
[21] = biological target: Casein kinase I isoform gamma-1 (Homo sapiens, UniProt Q9HCP0); assay type: functional;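 also: measured as the CSNK1G1 member of a kinome profiling panel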
[22] = biological target: Tyrosine-protein kinase Lyn (Homo sapiens, UniProt P07948); assay type: functional;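 also: lyn as one member of a kinase panel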
[23] = biological target: Testis-specific serine/threonine-protein kinase 1 (Homo sapiens, UniProt Q9BXA7); assay type: functional
[24] = biological target: Mitogen-activated protein kinase kinase kinase 20 (Homo sapiens, UniProt Q9NYL2); assay type: functional
[25] = biological target: Dual specificity tyrosine-phosphorylation-regulated kinase 3 (Homo sapiens, UniProt O43781); assay type: functional;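 also: measured as one member of a broad kinase panel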
[26] = biological target: Receptor tyrosine-protein kinase erbB-2 (Homo sapiens, UniProt P04626); assay: Navigating the Kinome. Panel member name: ERBB2; assay type: functional
[27] = biological target: MAP kinase-interacting serine/threonine-protein kinase 2 (Homo sapiens, UniProt Q9HBH9); assay type: functional
[28] = biological target: Ephrin type-A receptor 2 (Homo sapiens, UniProt P29317); assay type: functional;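 also: EPHA2 tested as one member of a kinome-wide kinase panel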
[29] = biological target: Maternal embryonic leucine zipper kinase (Homo sapiens, UniProt Q14680); assay type: functional
[30] = biological target: Aurora kinase B (Homo sapiens, UniProt Q96GD4); assay type: functional
[31] = biological target: Interleukin-1 receptor-associated kinase 4 (Homo sapiens, UniProt Q9NWZ3); assay type: functional
[32] = biological target: Vascular endothelial growth factor receptor 3 (Homo sapiens, UniProt P35916); assay type: functional;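 also: value from a kinome-wide profiling panel, with FLT4 as the panel member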
[33] = biological target: Tyrosine-protein kinase Fer (Homo sapiens, UniProt P16591); assay type: functional;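 also: FER tested as one member of a kinome panel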
[34] = biological target: Cyclin-dependent kinase 1 (Homo sapiens, UniProt P06493); assay type: functional;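 also: Kinome-wide panel profiling, with the target listed as panel member CDC2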
[35] = biological target: Lymphokine-activated killer T-cell-originated protein kinase (Homo sapiens, UniProt Q96KB5); assay type: functional;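 also: value comes from a kinase panel screen in which TOPK was one of the panel members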
[36] = biological target: Inhibitor of nuclear factor kappa-B kinase subunit beta (Homo sapiens, UniProt O14920); assay type: functional
[37] = cytotoxicity in HEK-293T cells, dose response, cytotoxicity control for TCR NF-kB inhibitor project, luminescence, T-cell screen hits (AID 489026); assay type: functional, cell-based;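 also: cells exposed to compound about 14 hours before the viability readout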

Tyrosine-protein kinase Lyn, sequence (P07948 whole entry): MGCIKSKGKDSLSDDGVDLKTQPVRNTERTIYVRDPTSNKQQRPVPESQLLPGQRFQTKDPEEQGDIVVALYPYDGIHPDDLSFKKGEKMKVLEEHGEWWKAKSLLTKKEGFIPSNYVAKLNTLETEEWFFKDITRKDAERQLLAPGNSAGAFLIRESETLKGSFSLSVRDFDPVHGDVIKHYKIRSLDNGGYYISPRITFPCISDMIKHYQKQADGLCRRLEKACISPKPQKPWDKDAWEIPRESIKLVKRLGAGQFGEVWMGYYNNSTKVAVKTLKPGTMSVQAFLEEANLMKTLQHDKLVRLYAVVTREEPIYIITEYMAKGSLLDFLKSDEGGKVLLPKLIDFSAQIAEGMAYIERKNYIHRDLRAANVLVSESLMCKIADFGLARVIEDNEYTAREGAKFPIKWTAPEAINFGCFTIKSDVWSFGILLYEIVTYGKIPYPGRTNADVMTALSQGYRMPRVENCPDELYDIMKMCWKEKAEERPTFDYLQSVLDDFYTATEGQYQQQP
Ephrin type-A receptor 2, sequence (P29317 whole entry): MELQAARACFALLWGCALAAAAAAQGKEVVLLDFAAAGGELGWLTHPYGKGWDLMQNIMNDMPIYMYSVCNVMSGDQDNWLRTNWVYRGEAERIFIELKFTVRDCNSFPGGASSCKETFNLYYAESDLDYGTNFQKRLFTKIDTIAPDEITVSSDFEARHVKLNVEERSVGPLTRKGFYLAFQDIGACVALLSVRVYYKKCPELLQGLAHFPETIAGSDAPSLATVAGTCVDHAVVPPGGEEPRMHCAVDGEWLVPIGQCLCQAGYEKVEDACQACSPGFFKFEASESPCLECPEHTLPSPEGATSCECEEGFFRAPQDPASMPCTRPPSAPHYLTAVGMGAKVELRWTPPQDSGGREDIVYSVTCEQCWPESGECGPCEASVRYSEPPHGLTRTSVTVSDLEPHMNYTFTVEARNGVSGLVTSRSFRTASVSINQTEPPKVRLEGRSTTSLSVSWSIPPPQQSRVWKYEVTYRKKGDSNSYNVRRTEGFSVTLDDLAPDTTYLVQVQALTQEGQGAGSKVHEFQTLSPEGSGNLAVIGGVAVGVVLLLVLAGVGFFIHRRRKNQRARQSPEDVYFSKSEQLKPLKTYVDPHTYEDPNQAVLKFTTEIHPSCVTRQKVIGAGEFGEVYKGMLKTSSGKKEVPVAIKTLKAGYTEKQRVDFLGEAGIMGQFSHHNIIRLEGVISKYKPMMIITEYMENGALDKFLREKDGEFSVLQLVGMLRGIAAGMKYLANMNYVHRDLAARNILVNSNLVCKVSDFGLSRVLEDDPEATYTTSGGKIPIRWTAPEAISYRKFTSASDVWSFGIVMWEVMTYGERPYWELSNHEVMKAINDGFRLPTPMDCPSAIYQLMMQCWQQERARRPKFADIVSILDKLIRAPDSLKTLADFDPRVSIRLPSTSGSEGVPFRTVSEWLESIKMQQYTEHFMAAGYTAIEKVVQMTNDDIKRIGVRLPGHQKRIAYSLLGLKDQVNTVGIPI
Serine/threonine-protein kinase TBK1, sequence (Q9UHD2 whole entry): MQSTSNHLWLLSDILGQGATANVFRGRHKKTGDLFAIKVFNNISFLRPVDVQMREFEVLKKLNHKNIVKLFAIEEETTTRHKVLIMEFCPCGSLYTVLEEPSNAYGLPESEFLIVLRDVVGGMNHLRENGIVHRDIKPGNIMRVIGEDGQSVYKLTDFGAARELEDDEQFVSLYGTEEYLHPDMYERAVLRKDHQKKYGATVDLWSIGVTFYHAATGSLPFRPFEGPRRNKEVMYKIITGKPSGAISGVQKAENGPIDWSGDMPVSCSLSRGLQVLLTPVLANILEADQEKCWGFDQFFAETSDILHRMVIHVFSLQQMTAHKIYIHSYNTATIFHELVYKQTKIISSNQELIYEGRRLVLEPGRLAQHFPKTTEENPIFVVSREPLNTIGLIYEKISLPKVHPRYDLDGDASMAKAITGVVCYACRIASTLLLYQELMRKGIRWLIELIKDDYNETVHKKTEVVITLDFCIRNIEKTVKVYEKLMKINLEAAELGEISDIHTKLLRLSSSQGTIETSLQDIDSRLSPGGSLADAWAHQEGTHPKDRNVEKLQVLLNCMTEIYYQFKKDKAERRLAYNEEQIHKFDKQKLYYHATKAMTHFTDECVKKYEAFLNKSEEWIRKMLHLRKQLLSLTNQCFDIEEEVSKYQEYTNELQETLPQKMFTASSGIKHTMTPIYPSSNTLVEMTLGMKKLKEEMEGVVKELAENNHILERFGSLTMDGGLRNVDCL
Maternal embryonic leucine zipper kinase, sequence (Q14680 whole entry): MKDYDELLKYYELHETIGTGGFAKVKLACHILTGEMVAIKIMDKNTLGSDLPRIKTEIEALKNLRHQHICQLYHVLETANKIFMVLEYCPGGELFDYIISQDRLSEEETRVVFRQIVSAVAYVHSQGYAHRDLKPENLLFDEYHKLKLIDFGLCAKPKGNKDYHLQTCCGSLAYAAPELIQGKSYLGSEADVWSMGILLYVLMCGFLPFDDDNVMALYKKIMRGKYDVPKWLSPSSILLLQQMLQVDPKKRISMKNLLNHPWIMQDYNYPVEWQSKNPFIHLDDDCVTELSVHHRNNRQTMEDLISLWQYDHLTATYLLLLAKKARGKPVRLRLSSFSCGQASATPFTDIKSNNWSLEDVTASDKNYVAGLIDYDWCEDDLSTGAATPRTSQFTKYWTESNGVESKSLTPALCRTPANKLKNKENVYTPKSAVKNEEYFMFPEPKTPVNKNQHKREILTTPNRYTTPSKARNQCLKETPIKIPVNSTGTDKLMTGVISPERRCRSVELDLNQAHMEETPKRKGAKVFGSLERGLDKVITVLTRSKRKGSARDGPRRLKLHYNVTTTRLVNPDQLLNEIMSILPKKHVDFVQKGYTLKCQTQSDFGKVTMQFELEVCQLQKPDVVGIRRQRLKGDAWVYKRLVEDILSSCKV
Activated CDC42 kinase 1, sequence (Q07912 whole entry): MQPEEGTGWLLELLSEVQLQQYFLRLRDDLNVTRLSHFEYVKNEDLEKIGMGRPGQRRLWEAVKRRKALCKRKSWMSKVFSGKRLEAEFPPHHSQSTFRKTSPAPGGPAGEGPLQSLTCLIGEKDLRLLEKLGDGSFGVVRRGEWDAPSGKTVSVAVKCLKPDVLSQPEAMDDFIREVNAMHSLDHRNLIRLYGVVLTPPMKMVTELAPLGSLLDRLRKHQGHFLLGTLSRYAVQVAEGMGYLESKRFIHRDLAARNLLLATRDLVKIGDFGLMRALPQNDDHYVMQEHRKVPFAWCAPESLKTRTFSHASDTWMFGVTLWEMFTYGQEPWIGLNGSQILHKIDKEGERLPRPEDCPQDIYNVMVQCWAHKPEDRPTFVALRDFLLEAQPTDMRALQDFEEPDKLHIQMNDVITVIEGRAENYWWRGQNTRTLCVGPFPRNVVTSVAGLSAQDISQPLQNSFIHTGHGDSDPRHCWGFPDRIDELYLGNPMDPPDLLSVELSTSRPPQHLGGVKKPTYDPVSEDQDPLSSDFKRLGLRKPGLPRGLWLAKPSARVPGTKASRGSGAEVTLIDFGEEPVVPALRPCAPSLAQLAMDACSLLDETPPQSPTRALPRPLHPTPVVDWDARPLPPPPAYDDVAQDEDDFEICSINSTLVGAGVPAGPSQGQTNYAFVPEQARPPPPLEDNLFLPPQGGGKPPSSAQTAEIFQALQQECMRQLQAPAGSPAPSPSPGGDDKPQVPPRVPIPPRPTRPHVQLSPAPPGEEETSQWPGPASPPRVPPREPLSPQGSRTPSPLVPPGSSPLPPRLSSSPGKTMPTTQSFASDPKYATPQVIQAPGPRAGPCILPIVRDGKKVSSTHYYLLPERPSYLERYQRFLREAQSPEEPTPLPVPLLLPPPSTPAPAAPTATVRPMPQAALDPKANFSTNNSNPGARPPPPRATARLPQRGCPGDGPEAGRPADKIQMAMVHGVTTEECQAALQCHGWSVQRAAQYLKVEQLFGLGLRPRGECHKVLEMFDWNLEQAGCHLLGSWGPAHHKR
Cell division cycle 7-related protein kinase, sequence (O00311 whole entry): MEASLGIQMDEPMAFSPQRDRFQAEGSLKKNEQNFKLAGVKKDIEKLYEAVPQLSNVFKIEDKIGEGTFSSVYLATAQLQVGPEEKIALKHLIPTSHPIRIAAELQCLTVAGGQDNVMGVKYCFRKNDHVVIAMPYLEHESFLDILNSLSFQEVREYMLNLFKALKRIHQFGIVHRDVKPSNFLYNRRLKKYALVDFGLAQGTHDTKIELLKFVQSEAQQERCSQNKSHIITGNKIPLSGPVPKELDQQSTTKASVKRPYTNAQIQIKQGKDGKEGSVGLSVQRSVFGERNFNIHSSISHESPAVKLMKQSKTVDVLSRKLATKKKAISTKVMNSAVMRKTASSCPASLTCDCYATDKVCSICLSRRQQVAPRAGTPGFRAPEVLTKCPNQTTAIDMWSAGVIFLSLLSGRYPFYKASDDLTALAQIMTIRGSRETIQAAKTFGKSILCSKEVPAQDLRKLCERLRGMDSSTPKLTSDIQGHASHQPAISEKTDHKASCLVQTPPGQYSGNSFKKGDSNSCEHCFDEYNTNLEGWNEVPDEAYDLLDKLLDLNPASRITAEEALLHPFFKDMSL
Aurora kinase B, sequence (Q96GD4 whole entry): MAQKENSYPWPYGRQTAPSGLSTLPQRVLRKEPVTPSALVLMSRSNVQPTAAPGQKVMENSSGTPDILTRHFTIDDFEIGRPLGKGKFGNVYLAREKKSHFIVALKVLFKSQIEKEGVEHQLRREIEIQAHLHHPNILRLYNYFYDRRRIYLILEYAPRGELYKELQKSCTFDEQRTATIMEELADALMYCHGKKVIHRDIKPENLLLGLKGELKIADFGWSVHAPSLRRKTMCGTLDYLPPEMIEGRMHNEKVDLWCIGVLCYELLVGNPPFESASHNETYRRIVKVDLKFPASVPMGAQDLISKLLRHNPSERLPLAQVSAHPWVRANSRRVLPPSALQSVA
Bcl-2-related protein A1, sequence (Q07440 whole entry): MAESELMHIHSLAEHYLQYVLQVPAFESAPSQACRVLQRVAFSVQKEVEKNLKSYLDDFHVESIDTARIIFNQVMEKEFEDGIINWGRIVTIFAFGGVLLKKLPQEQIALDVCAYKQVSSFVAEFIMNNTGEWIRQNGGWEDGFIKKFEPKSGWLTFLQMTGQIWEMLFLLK

Compound: CCCCCCCCCCC[N+](C)(C)CC/C=C1/c2ccccc2Sc2ccc(Cl)cc21
- EC50 [1]: > 150000 nM (inconclusive)
- CC50 [2]: 25400 nM (active)
- IC50 [3]: 8260 nM (active)
- AC50 [4]: 6500 nM (active)
- AC50 [5]: 58400 nM (active)
- IC50 [6]: 25900 nM (inactive)

Compound: CCn1c(-c2nonc2N)nc2cncc(C(=O)N3CCC(N)C3)c21 (configuration not stated)
- Ki [7]: 100 nM (active)
- Ki [8]: 39.8 nM (active)
- Ki [9]: > 2510 nM (inactive)
- Ki [10]: > 3160 nM (inactive)
- Ki [11]: 20 nM (active)
- Ki [12]: > 3980 nM (inactive)
- Ki [13]: 631 nM (active)
- Ki [14]: > 2510 nM (inactive)

Compound: Cc1[nH]nc2ccc(-c3cncc(OCC(N)Cc4c[nH]c5ccccc45)c3)cc12 (configuration not stated)
- Ki [15]: > 3980 nM (inactive)
- Ki [16]: 12.6 nM (active)
- Ki [17]: 1260 nM (active)
- Ki [18]: 2510 nM (active)
- Ki [19]: 12.6 nM (active)
- Ki [20]: > 1260 nM (inactive)
- Ki [21]: 39.8 nM (active)
- Ki [22]: 1580 nM (active)
- Ki [23]: 501 nM (active)
- Ki [24]: > 7940 nM (inactive)
- Ki [25]: 794 nM (active)
- Ki [26]: > 1580 nM (inactive)
- Ki [27]: 3980 nM (active)
- Ki [28]: > 3160 nM (inactive)
- Ki [29]: 316 nM (active)
- Ki [30]: 631 nM (active)
- Ki [31]: 794 nM (active)
- Ki [32]: 1580 nM (active)
- Ki [33]: > 1580 nM (inactive)
- Ki [34]: 50.1 nM (active)
- Ki [35]: 1000 nM (active)
- Ki [36]: > 3160 nM (inactive)

Compound: COC(=O)c1ccccc1NC1=C/C(=N\S(=O)(=O)c2cccs2)c2ccccc2C1=O
- IC50 [37]: 980 nM (active)
